Results: patent publication US10434135B2, “Pharmaceutical composition for preventing or treating arthritis” (Samsung Life Public Welfare Foundation, priority 2015, dated 2019)
Ends that are not written are not given here.

Conditions: rat, in vivo
Excerpt: The stained samples were examined under a fluorescence microscope (Eclipse TE2000U) at 200× magnification and photographed from 4 randomly selected areas. Then, the images with specific expressions were processed using the imageJ program and then quantified.

substance P retained in the knee joints: retained in the knee joints of rats
Sequence: KLDLKLDLKLDLRPKPQQFFGLM [KLD12-SP]
